Measurements reported in patent US9018259B2, “Treatment of cancer using benzoic acid derivatives” (New York University, priority 2004, dated 2015).

Experiments:
[1] = tested on: tyrosinase (from mushrooms); test: Purified tyrosinase activity, formation of DOPAchrome from L-DOPA; type: biochemical; details: at 8.0 mM, up to 10 minutes; L-DOPA 8.0 mM, 800 U/ml tyrosinase; FIG. 2
Description: Activity of purified tyrosinase was measured by monitoring the formation of DOPAchrome. Briefly, a fixed concentration of L-DOPA (8.0 mM) was incubated with 800 U/ml tyrosinase (from mushrooms-Sigma, St. Louis, Mo.) in the absence or presence of increasing concentrations of PABA, compound 44 (C-44) and compound 45 (C-45) (see FIG. 1 for structures) for indicated time points (see FIG. 2 for concentrations and time points). At each time point, 100 μl of the reaction mixture was measured. Data points represent the mean optical density at 475 nm±SD from triplicate wells.

[2] = tested on: 4T1 breast carcinoma cells; test: Tumor cell proliferation, WST-1 tetrazolium salt cleavage; type: cell-based; details: 50 μg/ml test compound for 3 days, with or without 0.01 μM TAXOL for additional 48 hours; compared to untreated control; FIG. 3C
Description: (§1) Tumor cell proliferation was assessed by monitoring mitochondrial dehydrogenase activity as detected by tetrazolium salt cleavage using a commercially available kit (WST-1; Roche, Indianapolis, Ind.). Briefly, B16F10 melanoma cells, Lewis Lung carcinoma cells, and 4T1 breast carcinoma cells (1×10^6) were resuspended in PABA-free growth medium supplemented with 2.0% fetal bovine serum and 50 μg/ml of test compound (as shown in FIG. 1) Following incubation for 3 days, the cells were either treated or not treated with 0.01 μM TAXOL® (paclitaxel) and incubated for an additional 48 hours. Proliferation was measured; data points represent the mean optical density at 490 nm±SD from triplicate wells.

B16F10 melanoma cells [3] = test: as above; type: cell-based; details: 50 μg/ml test compound for 3 days, with or without 0.01 μM TAXOL for additional 48 hours; compared to untreated control; FIG. 3A
Description: as §1

[4] = tested on: Lewis Lung carcinoma cells; test: as above; type: cell-based; details: 50 μg/ml test compound for 3 days, with or without 0.01 μM TAXOL for additional 48 hours; compared to untreated control; FIG. 3B
Description: as §1

B16F10 melanoma cells [5] = test: In vivo tumor growth of B16F10 xenografts in nude mice; details: B16F10 s.c. xenograft, daily intraperitoneal injection for 15 days, TAXOL 0.5 μM, C-45 100 μg, FIG. 4
Description: In addition, tumor growth in vivo of xenografts of B16F10 melanoma cells in nude mice was determined. Briefly, subconfluent cultures of B16F10 cells were harvested, washed, and resuspended in sterile PBS. Female nude mice were injected subcutaneously with 1×10^6 cells per mouse and tumors were allowed to grow for 3 days. After 3 days, mice were either untreated or treated daily for 15 days by intraperitoneal injection of TAXOL® (paclitaxel) (0.5 μM), C-45 (100 μg), or a combination of TAXOL® (paclitaxel) and C-45. Tumor growth was determined weekly by caliper measurements. After 15 days, the mice were sacrificed and tumor volume was determined by standard methods using the formula […], where V=volume, L=length, and W=width.

B16F10 melanoma cells [6] = test: Chick embryo tumor growth model; type: in vivo, chick embryos; details: B16F10 cells cultured with 50 μg/ml C-45 at least 7 days before implantation; for growth of B16F10 tumors in chick embryos, with or without TAXOL: TAXOL 0.01 μM, FIG. 5B
Description: The chick embryo tumor growth model was used to determine whether C-45 enhances the ability of TAXOL® (paclitaxel) or ionizing radiation to inhibit tumor growth. Briefly, B16F10 melanoma cells were cultured in growth medium in the presence or absence of 50 μg/ml C-45 for at least 7 days. Following harvesting and washing, about 2×10^5 tumor cells were implanted onto the chorioallontoic membranes of 10 day-old chick embryos and incubated for at least 24 hours. Following incubation, the embryos were treated with either a single fractionated dose of radiation (5.0 Gy) or TAXOL® (paclitaxel) (0.01 μM) and incubated for an additional 7 days. The embryos were sacrificed and tumors were resected and weighed (5-10 embryos per condition).

BRCA-2 = BRCA-2 protein expression in G361 melanoma cells treated with PABA; type: cell-based; details: G361 human melanoma cells treated with PABA; data not shown
From the text: (§2) To determine whether tumor cells abnormally express and signal through the PXR/SXR receptor compared to their non-transformed counterparts, and thus, candidates for treatment with PXR/SXR agonists, immortalized, non-transformed cells and sub-confluent transformed, tumorigenic cells will be cultured in the presence or absence of various concentrations of a known PXR/SXR activator, e.g., benzoic acid derivatives, and a negative control, e.g., streptomycin, for a pre-determined time e.g., 5 days. Cell lyses will be achieved as described above. Following lyses, about 15 μg/lane of protein will be loaded and separated by 10% SDS-PAGE, followed by transfer to nitrocellulose membranes. Membranes will then incubated in the presence of e.g., monoclonal antibody 39048, specific for the PXR/SXR nuclear receptor, followed by washing and labeling with a peroxidase-labeled secondary antibody.
(§3) Similarly, to evaluate expression of cell cycle proteins that may be regulated by PXR/SXR activation in response to drug treatment, membranes as prepared above will be incubated with commercially available monoclonal antibodies such as PC410 (Chemicon, Temecula, Calif.), directed against β-integrin, as a positive control, monoclonal antibody 3303, specific for BRCA-2 (QED Biosciences, San Diego, Calif.), and with monoclonal antibody AB-3, directed against CDC25A (NeoMakers Inc). […]

CDC25A = CDC25A protein expression in G361 melanoma cells treated with PABA; type: cell-based; details: G361 human melanoma cells treated with PABA; data not shown
From the text: as §2, §3

PXR/SXR receptor = target: T1, PXR/SXR receptor (Homo sapiens, UniProt O75469); details: Moore et al., Mol. Endocrinol. 2002; 16: 977-986; cited from earlier work
T1 sequence (O75469 1-434): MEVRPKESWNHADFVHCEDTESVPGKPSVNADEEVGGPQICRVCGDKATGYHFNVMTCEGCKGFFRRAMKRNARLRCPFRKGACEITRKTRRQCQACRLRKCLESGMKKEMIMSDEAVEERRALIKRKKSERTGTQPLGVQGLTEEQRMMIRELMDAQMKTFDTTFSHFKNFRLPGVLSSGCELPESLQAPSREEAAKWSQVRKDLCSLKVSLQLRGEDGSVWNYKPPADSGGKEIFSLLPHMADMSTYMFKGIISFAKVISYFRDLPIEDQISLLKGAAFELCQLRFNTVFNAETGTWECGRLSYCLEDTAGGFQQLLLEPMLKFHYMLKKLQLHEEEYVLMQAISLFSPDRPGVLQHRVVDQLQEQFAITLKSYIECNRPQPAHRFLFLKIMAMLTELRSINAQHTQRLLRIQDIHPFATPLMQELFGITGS

| Structure (SMILES) | inhibition of tyrosinase activity (DOPAchrome formation, optical density at 475 nm) [1] | in vitro proliferation of 4T1 breast carcinoma cells (optical density at 490 nm) [2] | in vitro proliferation of B16F10 cells (optical density at 490 nm) (B16F10 melanoma cells [3]) | in vitro proliferation of Lewis Lung carcinoma cells (optical density at 490 nm) [4] | in vivo tumor growth (tumor volume) compared to untreated controls (B16F10 melanoma cells [5]) | growth of B16F10 tumors in chick embryos, with or without TAXOL (B16F10 melanoma cells [6]) | tumor weight / tumor growth in chick embryos, with or without radiation (B16F10 melanoma cells [6]; single dose of radiation 5.0 Gy, FIG. 5A) | protein expression of DNA repair protein BRCA-2 (BRCA-2) | expression of cell-cycle progression checkpoint protein CDC25A (CDC25A) | binding and activation of the PXR/SXR receptor (PXR/SXR receptor) |
| --- | --- | --- | --- | --- | --- | --- | --- | --- | --- | --- |
| C=CCNc1ccc(C(=O)O)cc1 [C-45] | inhibited tyrosinase activity | inhibited in vitro proliferation | inhibited in vitro proliferation | inhibited in vitro proliferation | neither TAXOL® (paclitaxel) nor C-45 inhibited in vivo tumor growth | inhibited the growth of the B16F10 tumors significantly | reduced tumor weight significantly |  |  |  |
| Nc1ccc(C(=O)O)cc1 [PABA, para-amino-benzoic acid] | inhibited tyrosinase activity |  |  |  |  |  |  | decreased protein expression of DNA repair protein BRCA-2 | increase expression of cell-cycle progression checkpoint protein CDC25A | bind and activate the PXR/SXR receptor |
| CC(=O)O[C@H]1C(=O)[C@@]2(C)[C@H]([C@H](OC(=O)c3ccccc3)[C@]3(O)C[C@H](OC(=O)[C@H](O)[C@@H](NC(=O)c4ccccc4)c4ccccc4)C(C)=C1C3(C)C)[C@]1(OC(C)=O)CO[C@@H]1C[C@@H]2O [TAXOL® (paclitaxel), paclitaxel] |  | inhibited in vitro proliferation | inhibited in vitro proliferation | inhibited in vitro proliferation | neither TAXOL® (paclitaxel) nor C-45 inhibited in vivo tumor growth | inhibited the growth of the B16F10 tumors significantly |  |  |  |  |
